For this assay, the target named is TNAP (Homo sapiens (Human), UniProt P05186). Put plainly: TNAP (PPi) inhibition assay, pyrophosphate as substrate. It is filed as biochemical. The method, boiled down:
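Enzyme source was conditioned serum-free medium from COS-1 cells transiently expressing tagged human TNAP, dialyzed against TBS with MgCl2/ZnCl2. Activity on natural substrate PPi at pH 7.4 read as liberated phosphate (Biomol Green).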

On to `COc1ccc(Cl)cc1S(=O)(=O)Nc1cncc(C(=O)N2CCOCC2)c1` [Example IV-34, 5-Chloro-2-methoxy-N-(5-(morpholine-4-carbonyl)pyridin-3-yl)benzenesulfonamide], for which the IC50 fell in the range of 100 to 1000 nM.

For the molecule `COc1ccc(OC)c(S(=O)(=O)Nc2cncc(C(N)=O)c2)c1` [Example IV-36, 5-(2,5-Dimethoxyphenylsulfonamido)nicotinamide], the IC50 is 100 to 1000 nM.

Consider `CNC(=O)c1cncc(NS(=O)(=O)c2cc(OC)ccc2OC)c1` [Example IV-37, 5-(2,5-Dimethoxyphenylsulfonamido)-N-methylnicotinamide], for which the IC50 lay within 100 to 1000 nM.

The molecule `CCCNC(=O)c1cncc(NS(=O)(=O)c2cc(OC)ccc2OC)c1` [Example IV-38, 5-(2,5-Dimethoxyphenylsulfonamido)-N-propylnicotinamide] had an IC50 of 100 to 1000 nM. The molecule `COc1ccc(OC)c(S(=O)(=O)Nc2cncc(C(=O)NC3CCCCC3)c2)c1` [Example IV-39, 5-(2,5-Dimethoxyphenylsulfonamido)-N-cyclohexylnicotinamide] showed a 50% inhibitory concentration (IC50) of less than 100 nM. `COc1ccc(OC)c(S(=O)(=O)Nc2cncc(C(=O)Nc3ccccc3)c2)c1` [Example IV-40, 5-(2,5-Dimethoxyphenylsulfonamido)-N-phenylnicotinamide]: the IC50 was 100 to 1000 nM. Consider `COCCNC(=O)c1cncc(NS(=O)(=O)c2cc(OC)ccc2OC)c1` [Example IV-41, 5-(2,5-Dimethoxyphenylsulfonamido)-N-(2-methoxyethyl)nicotinamide], for which the IC50 lay in the range of 100 to 1000 nM. With `COc1ccc(OC)c(S(=O)(=O)Nc2cncc(C(=O)NCCN(C)C)c2)c1` [Example IV-42, 5-(2,5-Dimethoxyphenylsulfonamido)-N-(2-(dimethylamino)ethyl)nicotinamide], the IC50 lay within 100 to 1000 nM. `COc1ccc(OC)c(S(=O)(=O)Nc2cncc(C(=O)N3CCOCC3)c2)c1` [Example IV-43, 2,5-Dimethoxy-N-(5-(morpholine-4-carbonyl)pyridin-3-yl)benzenesulfonamide] gave an IC50 of 100 to 1000 nM. To `COc1ccc(OC)c(S(=O)(=O)Nc2cncc(C(=O)N3CCN(C)CC3)c2)c1` [Example IV-44, 2,5-Dimethoxy-N-(5-(4-methylpiperazine-1-carbonyl)pyridin-3-yl)benzenesulfonamide] belongs less than 100 nM; to `COc1ccc(Br)cc1S(=O)(=O)Nc1cnc2ccc(O)cc2c1` [Example IX-1, 5-Bromo-N-(6-hydroxyquinolin-3-yl)-2-methoxybenzenesulfonamide], less than 100 nM; to `COc1ccc2ncc(NS(=O)(=O)c3cc(Br)ccc3OC)cc2c1` [Example IX-2, 5-Bromo-2-methoxy-N-(6-methoxyquinolin-3-yl)benzenesulfonamide], less than 100 nM.

In turn, `COc1ccc(OC)c(S(=O)(=O)Nc2cnc3ccc(O)cc3c2)c1` [Example IX-3, N-(6-Hydroxyquinolin-3-yl)-2,5-dimethoxybenzenesulfonamide] yielded an IC50 of less than 100 nM.

In the case of `COC(=O)c1ccc2ncc(NS(=O)(=O)c3cc(Br)ccc3OC)cc2c1` [Example IX-4, 3-(5-Bromo-2-methoxy-benzenesulfonylamino)-quinoline-6-carboxylic Acid methyl ester], the IC50 is less than 100 nM. Under `COc1ccc(Br)cc1S(=O)(=O)Nc1cnc2ccc(C(=O)O)cc2c1` [Example IX-5, 3-(5-Bromo-2-methoxy-benzenesulfonylamino)-quinoline-6-carboxylic Acid] stands 100 to 1000 nM; under `COc1ccc(Br)cc1S(=O)(=O)Nc1cnc2ccc(C(N)=O)cc2c1` [Example IX-6, 3-(5-Bromo-2-methoxy-benzenesulfonylamino)-quinoline-6-carboxylic Acid Amide], less than 100 nM; under `CNC(=O)c1ccc2ncc(NS(=O)(=O)c3cc(Br)ccc3OC)cc2c1` [Example IX-7, 3-(5-Bromo-2-methoxy-benzenesulfonylamino)-quinoline-6-carboxylic Acid Methylamide], less than 100 nM. The molecule `COC(=O)c1ccc2ncc(NS(=O)(=O)c3cc(OC)ccc3OC)cc2c1` [Example IX-8, 3-(2,5-Dimethoxy-benzenesulfonylamino)-quinoline-6-carboxylic Acid Methyl Ester] gave an IC50 of 100 to 1000 nM. Under `COc1ccc(OC)c(S(=O)(=O)Nc2cnc3ccc(C(=O)O)cc3c2)c1` [Example IX-9, 3-(2,5-Dimethoxy-benzenesulfonylamino)-quinoline-6-carboxylic Acid] stands greater than 1000 nM.

For `COc1ccc(OC)c(S(=O)(=O)Nc2cnc3ccc(C(N)=O)cc3c2)c1` [Example IX-10, 3-(2,5-Dimethoxy-benzenesulfonylamino)-quinoline-6-carboxylic Acid Amide], the IC50 lay in the range of 100 to 1000 nM. `CNC(=O)c1ccc2ncc(NS(=O)(=O)c3cc(OC)ccc3OC)cc2c1` [Example IX-11, 3-(2,5-Dimethoxy-benzenesulfonylamino)-quinoline-6-carboxylic Acid Methylamide] gave an IC50 of 100 to 1000 nM. For `CCCNC(=O)c1ccc2ncc(NS(=O)(=O)c3cc(OC)ccc3OC)cc2c1` [Example IX-12, 3-(2,5-Dimethoxy-benzenesulfonylamino)-quinoline-6-carboxylic Acid Propylamide], the IC50 was less than 100 nM. Molecule `COc1ccc(OC)c(S(=O)(=O)Nc2cnc3ccc(C(=O)NC4CC4)cc3c2)c1` [Example IX-13, 3-(2,5-Dimethoxy-benzenesulfonylamino)-quinoline-6-carboxylic Acid Cyclopropylamide] showed an IC50 of 100 to 1000 nM. Molecule `COc1ccc(OC)c(S(=O)(=O)Nc2cnc3ccc(C(=O)NC4CCCCC4)cc3c2)c1` [Example IX-14, 3-(2,5-Dimethoxy-benzenesulfonylamino)-quinoline-6-carboxylic Acid Cyclohexylamide] gave an IC50 of less than 100 nM. To `COc1ccc(OC)c(S(=O)(=O)Nc2cnc3ccc(CN(C)C)cc3c2)c1` [Example IX-15] belongs 100 to 1000 nM. Turning to `COc1ccc(Br)cc1S(=O)(=O)Nc1ccsc1` [Example V-1, 5-Bromo-2-methoxy-N-(thiophen-3-yl)benzenesulfonamide], the IC50 was greater than 1000 nM. Consider `COc1ccc(OC)c(S(=O)(=O)Nc2ccsc2)c1` [Example V-2, 2,5-Dimethoxy-N-(thiophen-3-yl)benzenesulfonamide], for which the IC50 is greater than 1000 nM. Consider `COc1ccc(Br)cc1S(=O)(=O)Nc1ncco1` [Example V-3, 5-Bromo-2-methoxy-N-oxazol-2-yl-benzenesulfonamide], for which the IC50 is greater than 1000 nM. Turning to `COc1ccc(OC)c(S(=O)(=O)Nc2ncco2)c1` [Example V-4, 2,5-Dimethoxy-N-oxazol-2-yl-benzenesulfonamide], the IC50 was greater than 1000 nM.

Consider `COc1ccc(Br)cc1S(=O)(=O)Nc1cc(C)no1` [Example V-5, 5-Bromo-2-methoxy-N-(3-methyl-isoxazol-5-yl)-benzenesulfonamide], for which the IC50 lay within 100 to 1000 nM. `COc1ccc(OC)c(S(=O)(=O)Nc2cc(C)no2)c1` [Example V-6, 2,5-Dimethoxy-N-(3-methyl-isoxazol-5-yl)-benzenesulfonamide]: the IC50 lay within 100 to 1000 nM. As to `COc1ccc(Br)cc1S(=O)(=O)Nc1cc[nH]n1` [Example V-7, 5-Bromo-2-methoxy-N-(1H-pyrazol-3-yl)-benzenesulfonamide], the IC50 is greater than 1000 nM.

In the case of `COc1ccc(OC)c(S(=O)(=O)Nc2cc[nH]n2)c1` [Example V-8, 2,5-Dimethoxy-N-(1H-pyrazol-3-yl)-benzenesulfonamide], the IC50 was greater than 1000 nM.

As usually defined, the IC50 is the point on the concentration scale where inhibition reaches its midpoint.

These data come from US10370333B2 (Sanford Burnham Prebys Medical Discovery Institute, priority 2012, dated 2019).
